This test in a line: Half-life of ADR destruction by UVA light in the presence of test compounds (decrease in absorbance at 480 nm). It counts as physicochemical.
Where [1] appears, read: UVA light, 100 μM test compound alone.
Setting [2] is: UVA light, 100 μM test compound with 0.5 μM riboflavin.

Values joined by “and” are separate entries in the source; they are usually repeats but may differ in a detail not shown here. Equal values may be shown once. Read-outs that look alike come from different tables or passages of the source.

Consider `COc1ccc(CCCCO)cc1` [4-(4-Methoxyphenyl)-1-Butanol], for which, under setting [1], the “Half-Life of ADR Destruction, 100 μM Test Compound” value is 43.0 min. Also, under setting [2], the “Half-Life of ADR Destruction, 100 μM Test Compound and 0.5 μM Riboflavin” value worked out at 3.46 min.

Consider `O=C(O)C=Cc1ccc2ccccc2c1` [3-(2-Naphthyl)acrylic acid], for which the “Half-Life of ADR Destruction, 100 μM Test Compound and 0.5 μM Riboflavin” value under setting [2] worked out at 43.0 min.

Turning to `c1cc[nH]c1` [Pyrrole], the “Half-Life of ADR Destruction, 100 μM Test Compound and 0.5 μM Riboflavin” value was 11.6 min.

Turning to `COc1ccccc1C(C)=O` [2′-Methoxyacetophenone], the “Half-Life of ADR Destruction, 100 μM Test Compound” value under setting [1] came to 25.1 min. For the same compound, the “Half-Life of ADR Destruction, 100 μM Test Compound and 0.5 μM Riboflavin” value under setting [2] was 21.5 min.

On to `OCc1ccc2ccccc2c1` [2-Naphthalenemethanol], for which the “Half-Life of ADR Destruction, 100 μM Test Compound and 0.5 μM Riboflavin” value under setting [2] was 50.2 min.

As for `COc1cccc(C=CC(=O)O)c1` [3-Methoxy Cinnamic Acid], the “Half-Life of ADR Destruction, 100 μM Test Compound” value under setting [1] came out at 43.0 min. The “Half-Life of ADR Destruction, 100 μM Test Compound and 0.5 μM Riboflavin” value under setting [2] was 21.5 min.

For the compound `CCc1c(C)c[nH]c1C` [2,4-Dimethyl-3-ethyl Pyrrole], the “Half-Life of ADR Destruction, 100 μM Test Compound and 0.5 μM Riboflavin” value under setting [2] was found to be 20.1 min.

As for `O=C(O)c1cccc2ccccc12` [Naphthalene-1-carboxylic acid], the “Half-Life of ADR Destruction, 100 μM Test Compound” value under setting [1] worked out at 50.2 min. Moreover, the “Half-Life of ADR Destruction, 100 μM Test Compound and 0.5 μM Riboflavin” value under setting [2] came out at 43.0 min.

Turning to `N[C@@H](Cc1ccc2ccccc2c1)C(=O)O` [3-(2-Naphthyl)alanine], under setting [2], the “Half-Life of ADR Destruction, 100 μM Test Compound and 0.5 μM Riboflavin” value was 27.4 min.

Take `CC(=O)c1ccc[nH]1` [2-Acetyl Pyrrole]: the “Half-Life of ADR Destruction, 100 μM Test Compound” value under setting [1] is 50.2 min. Also, the “Half-Life of ADR Destruction, 100 μM Test Compound and 0.5 μM Riboflavin” value under setting [2] stood at 30.1 min.

As for `O=C1CC(c2ccccc2)Oc2ccccc21` (stereo not drawn) [2-Phenylchromanone (Flavanone), 2-Phenylchromanone], under setting [2], the “Half-Life of ADR Destruction, 100 μM Test Compound and 0.5 μM Riboflavin” value is 50.2 min.

Regarding `Cc1ccc2[nH]c(C)cc2c1` [2,5-Dimethyl Indole], the “Half-Life of ADR Destruction, 100 μM Test Compound” value under setting [1] is 17.7 min. In addition, the “Half-Life of ADR Destruction, 100 μM Test Compound and 0.5 μM Riboflavin” value under setting [2] was determined as 5.79 min.

`O=C(O)c1ccccc1C(=O)c1ccccc1` [2-Benzophenone-carboxylic acid]: the “Half-Life of ADR Destruction, 100 μM Test Compound” value was found to be 50.2 min.

On to `N[C@@H](CSSC[C@H](N)C(=O)O)C(=O)O` [Cystine], for which the “Half-Life of ADR Destruction, 100 μM Test Compound and 0.5 μM Riboflavin” value under setting [2] was determined as 150.5 min.

Take `O=C(O)c1ccc([N+](=O)[O-])cc1` [4-Nitro Benzoic Acid]: the “Half-Life of ADR Destruction, 100 μM Test Compound and 0.5 μM Riboflavin” value under setting [2] worked out at 50.2 min.

As for `O=C(O)c1cccc(O)c1` [3-Hydroxy Benzoic Acid], the “Half-Life of ADR Destruction, 100 μM Test Compound and 0.5 μM Riboflavin” value under setting [2] was 23.2 min.

`Oc1ccc2ccccc2c1` [2-Hydroxynaphthalene]: under setting [1], the “Half-Life of ADR Destruction, 100 μM Test Compound” value worked out at 30.1 min. The “Half-Life of ADR Destruction, 100 μM Test Compound and 0.5 μM Riboflavin” value under setting [2] is 23.2 min.

With `COc1ccc2[nH]ccc2c1` [5-Methoxy Indole], under setting [2], the “Half-Life of ADR Destruction, 100 μM Test Compound and 0.5 μM Riboflavin” value is 25.1 min and 14.3 min.

With `Nc1ccc(C(=O)c2ccc(N)cc2)cc1` [4,4′-Diamino-benzophenone], the “Half-Life of ADR Destruction, 100 μM Test Compound and 0.5 μM Riboflavin” value under setting [2] amounted to 27.4 min.

For Dimethyl-2,3-indolecarboxylic acid, the “Half-Life of ADR Destruction, 100 μM Test Compound and 0.5 μM Riboflavin” value under setting [2] turned out to be 12.0 min.

Regarding `Nc1ccccc1CCO` [2-Amino Phenylethyl Alcohol], the “Half-Life of ADR Destruction, 100 μM Test Compound and 0.5 μM Riboflavin” value under setting [2] came to 13.7 min.

Regarding `OCCCc1ccccc1` [3-Phenyl-1-Propanol], the “Half-Life of ADR Destruction, 100 μM Test Compound” value under setting [1] stood at 50.2 min. Further, the “Half-Life of ADR Destruction, 100 μM Test Compound and 0.5 μM Riboflavin” value under setting [2] amounted to 43.0 min.

Take `Nc1ccc(Oc2ccccc2)cc1` [4-Phenoxyaniline]: the “Half-Life of ADR Destruction, 100 μM Test Compound” value under setting [1] came out at 75.3 min. The “Half-Life of ADR Destruction, 100 μM Test Compound and 0.5 μM Riboflavin” value under setting [2] was 15.1 min.

`CCC(=O)c1ccc(OC)cc1` [4-Methoxypropriophenone]: the “Half-Life of ADR Destruction, 100 μM Test Compound and 0.5 μM Riboflavin” value came to 30.1 min.
